Values of other authors in article PMC3969558 (Molecular Biology and Evolution, 2013).
No end group written: not given here.

How the values were obtained:
amphioxus GnRHR3 = conditions: ref Tello and Sherwood 2009
[1] = tested on: steroidal receptors (nuclear receptors similar to the sex steroid receptors); conditions: ref Paris et al. 2008; Katsu et al. 2010

Compound | activation of GnRHR3 (earlier study) (amphioxus GnRHR3) | binding to amphioxus steroidal receptor [1]
vertebrate GnRH2: vertebrate GnRH2, present throughout the vertebrates, 10 amino acids (QHWSHGWYPG; ends and bridges not checked; UniProt O43555 24-33, looked up) | activated amphioxus GnRHR3 within the vertebrate physiological range | 
C[C@]12CC[C@@H]3c4ccc(O)cc4CC[C@H]3[C@@H]1CC[C@@H]2O [estradiol] |  | has been shown to bind one of the steroidal receptors
